Results taken from patent US20250144051A1, “Colchicine for Treating Connective Tissue Disorders” (Khan Sciences, Inc., priority 2023, published 2025).

Columns and labels:
TNF-α = experiment: In vitro tendinopathy model, TNF-α in tenocyte supernatant (MSD multiplex); type: cell-based, human
Procedure: (§1) In Vitro Tendinopathy Model: The below experiment was conducted on an in vitro tendinopathy model. Cells derived from human tendons (tenocytes) can serve as an in vitro model of tendons. See Miller et al., “MicroRNA29a regulates IL-33-mediated tissue remodelling in tendon disease.” Nat Commun 6, 6774 (2015). Cultured tenocytes can be used to investigate the effects of pro-inflammatory cytokines upon the most basic elements of tendon structure. See Ellis et al., “Defining the profile: Characterizing cytokines in tendon injury to improve clinical therapy.” Journal of Immunology and Regenerative Medicine 16, 100059 (2022). When a tendon is injured, it triggers a local inflammatory response that involves immune cell infiltration and the expression of pro-inflammatory mediators. This inflammatory environment can modify tenocyte physiology, causing them to become activated and pro-inflammatory. Exposing the tenocytes to the pro-inflammatory cytokines TNF-α and IL-1β can mimic the effects of tendon injury. See Smith et al., “Tumour necrosis factor alpha, interleukin 1 beta and interferon gamma have detrimental effects on equine tenocytes that cannot be rescued by IL-1RA or mesenchymal stromal cell-derived factors.” Cell Tissue Res 391, 523-544 (2023).
(§2) Cell Culture System. Immortalized, healthy, commercially-sourced human tenocyte cells (donor, patellar tendon) were reconstituted, seeded in T-75 flasks coated with bovine collagen I, and were maintained in Tenocyte Growth Medium supplemented with Tenocyte Growth Supplement, FBS, and penicillin/streptomycin. Culture conditions were maintained at 37° C. in a humidified 5% CO2 atmosphere. Cells were seeded at a density of 100,000 cells/well in commercially-sourced 24-well plates that were pre-coated with rat tail tendon collagen I.
(§3) Treatment Protocol. This study was designed to follow the time-course of collagen production after cytokine exposure to mimic the effects of tendon injury. The time variable was cytokine exposure time (6 hours, 1 day, 3 days, and 5 days). Each of these cytokine exposure time periods was followed by a 24-hour drug treatment period. Inflammatory conditions were induced using a combination of IL-1β (1 nM; 17 ng/ml) and TNF-α (10 ng/ml). Two therapeutic interventions were evaluated. The treatment designated as “treatment A” was colchicine (2 nM). The treatment designated as “treatment B” was colchicine (2 nM) plus pyridoxine (100 μM).
(§4) Experimental Groups. The treatment groups were as follows: (1) exposed to inflammatory cytokines plus treatment A; (2) exposed to inflammatory cytokines plus treatment B; (3) exposed to inflammatory cytokines (negative control, no drug). Further reference control groups were as follows: (A) treatment A without inflammatory cytokine exposure (drug-only control); (B) treatment B without inflammatory cytokine exposure (drug-only control); (C) healthy control (no inflammatory cytokines, no drug treatment).
(§5) Sample Collection Times. Samples were collected at the following timepoints after initiation of cytokine exposure: • 6-hour samples: Collection at 30 hours (6 hr cytokine exposure+24 hr drug treatment) • 1-day samples: Collection at 48 hours (24 hr cytokine exposure+24 hr drug treatment) • 3-day samples: Collection at 96 hours (72 hr cytokine exposure+24 hr drug treatment) • 5-day samples: Collection at 144 hours (120 hr cytokine exposure+24 hr drug treatment, cell culture medium replenished on day-3)
(§6) Assays Used. Collagen I (human) content was measured using enzyme-linked immunosorbent assay (ELISA) in cell culture supernatants. TGF-β1 in cell culture supernatants were measured using the MSD multiplex platform. Other inflammatory cytokines in cell culture supernatants were measured using the MSD multiplex platform.

Collagen I (human) = experiment: In vitro tendinopathy model, collagen I ELISA in tenocyte culture supernatant; type: cell-based
Procedure: as §1, §2, §3, §4
Sample Collection Times. […]
as §6

VEGF = experiment: In vitro tendinopathy model, VEGF in tenocyte supernatant (MSD multiplex); type: cell-based, human; parameters: VEGF, % of negative control / increase of VEGF levels compared to negative control: concentration or dose not given beside the values
Procedure: as §1, §2, §3, §4, §5, §6

IFN-γ = experiment: In vitro tendinopathy model, IFN-γ in tenocyte supernatant (MSD multiplex); type: cell-based, human; parameters: IFN-γ, % of negative control / reduction of IFN-γ levels compared to negative control: concentration or dose not given beside the values
Procedure: as §1, §2, §3, §4, §5, §6

[1] = 6 hr cytokine exposure + 24 hr drug treatment
[2] = 1 day cytokine exposure + 24 hr drug treatment
[3] = 3 days cytokine exposure + 24 hr drug treatment
[4] = 5 days cytokine exposure + 24 hr drug treatment

COc1cc2c(c(OC)c1OC)-c1ccc(OC)c(=O)cc1[C@@H](NC(C)=O)CC2 [Treatment A, colchicine]
TNF-α, % of negative control (TNF-α; [1]): 116.7% | TNF-α level (TNF-α; 6 hr cytokine exposure + 24 hr drug treatment, negative control 1678.4 pg/mL): 1958.4 pg/mL | TNF-α, % of healthy level (TNF-α; [2]): 806.3% | TNF-α, % of negative control (TNF-α; [2]): 129.3% | TNF-α level (TNF-α; 1 day cytokine exposure + 24 hr drug treatment, negative control 1317.2 pg/mL): 1703.5 pg/mL | TNF-α, % of healthy level (TNF-α; [3]): 617.0% | TNF-α, % of negative control (TNF-α; [3]): 135.8% | TNF-α level (TNF-α; 3 days cytokine exposure + 24 hr drug treatment, negative control 960.1 pg/mL): 1303.6 pg/mL | TNF-α, % of healthy level (TNF-α; [4]): 424.1% | TNF-α, % of negative control (TNF-α; [4]): 108.7% | TNF-α level (TNF-α; 5 days cytokine exposure + 24 hr drug treatment, negative control 824.1 pg/mL): 895.9 pg/mL | TNF-α level (TNF-α; drug alone, without inflammatory cytokines, healthy control 211.3 pg/mL): 1.1 pg/mL | collagen I level (Collagen I (human); 6 hr IL-1β + TNF-α exposure + 24 hr drug treatment, negative control 24 ng/mL): 20 ng/mL | collagen I level (Collagen I (human); 1 day IL-1β + TNF-α exposure + 24 hr drug treatment, negative control 20 ng/ml): 19 ng/mL | collagen I level (Collagen I (human); 3 days IL-1β + TNF-α exposure + 24 hr drug treatment, negative control 23 ng/ml): 21 ng/mL | collagen I level (Collagen I (human); 5 days IL-1β + TNF-α exposure + 24 hr drug treatment, negative control 28 ng/ml): 28 ng/mL | collagen I level (Collagen I (human); drug alone, without inflammatory cytokines, healthy control 30 ng/ml): 17 ng/mL | VEGF, % of healthy level (VEGF; [1]): 263.2% | VEGF, % of negative control (VEGF; [1]): 157.0% | VEGF level (VEGF; 6 hr cytokine exposure + 24 hr drug treatment, negative control 333.6 pg/mL): 523.8 pg/mL | VEGF, % of healthy level (VEGF; [2]): 401.8% | VEGF, % of negative control (VEGF; [2]): 133.4% | VEGF level (VEGF; 1 day cytokine exposure + 24 hr drug treatment, negative control 599.5 pg/mL): 799.7 pg/mL | VEGF, % of healthy level (VEGF; [3]): 314.0% | VEGF, % of negative control (VEGF; [3]): 112.6% | VEGF level (VEGF; 3 days cytokine exposure + 24 hr drug treatment, negative control 555.0 pg/mL): 624.9 pg/mL | VEGF, % of healthy level (VEGF; [4]): 229.0% | VEGF, % of negative control (VEGF; [4]): 117.9% | VEGF level (VEGF; 5 days cytokine exposure + 24 hr drug treatment, negative control 386.6 pg/mL): 455.8 pg/mL | increase of VEGF levels compared to negative control (VEGF; at 6 hours): 57% | VEGF level (VEGF; drug alone, without inflammatory cytokines, healthy control 199.0 pg/mL): 621.7 pg/mL | reduction of IFN-γ levels compared to negative control (IFN-γ; 6-hour timepoint): 28.4% | IFN-γ, % of healthy level (IFN-γ; [1]): 154.5% | IFN-γ, % of negative control (IFN-γ; [1]): 71.6% | IFN-γ level (IFN-γ; 6 hr cytokine exposure + 24 hr drug treatment, negative control 17.6 pg/ml): 12.6 pg/mL | IFN-γ, % of healthy level (IFN-γ; [2]): 186.9% | IFN-γ, % of negative control (IFN-γ; [2]): 98.0% | IFN-γ level (IFN-γ; 1 day cytokine exposure + 24 hr drug treatment, negative control 15.6 pg/ml): 15.3 pg/mL | IFN-γ, % of healthy level (IFN-γ; [3]): 112.1% | IFN-γ, % of negative control (IFN-γ; [3]): 72.4% | IFN-γ level (IFN-γ; 3 days cytokine exposure + 24 hr drug treatment, negative control 12.7 pg/mL): 9.2 pg/mL | IFN-γ, % of healthy level (IFN-γ; [4]): 160.7% | IFN-γ, % of negative control (IFN-γ; [4]): 80.7% | IFN-γ level (IFN-γ; 5 days cytokine exposure + 24 hr drug treatment, negative control 16.3 pg/mL): 13.1 pg/mL | IFN-γ level (IFN-γ; drug alone, without inflammatory cytokines, healthy control 8.2 pg/mL): 3.1 pg/mL
